{
  "source": "patent US5242826A",
  "about": "“Polypeptides for adhering cells to a substrate” (Regents of the University of Minnesota, priority 1991, dated 1993)",
  "assay": "3H-heparin binding to type IV collagen and to NCl domain",
  "description": "It was then established that ^3 H-heparin binds both to intact, native type IV collagen and to the isolated NCl domain. FIGS. 10 and 11 show the binding of a constant amount of ^3 H-heparin (85,000 dpm) to increasing concentrations of type IV collagen and the NCl domain, respectively. […] Type IV collagen binds 5-6 times more ^3 H-heparin than does the NCl domain.\nNext, the binding of increasing concentrations of ^3 H-heparin to a constant amount of type IV collagen (3 μg) and an equimolar amount of the NCl domain (1 μg) was tested. […] In this type of experiment, approximately 4 times more ^3 H-heparin bound to type IV collagen than to the NCl domain.",
  "data": [
    {"substance": "type IV collagen: basement membrane glycoprotein, MW about 500,000, two α1 chains and one α2 chain", "values": [
      {"measurement": "binding of a constant amount of 3H-heparin to increasing concentrations of protein", "setting": "3H-heparin 85,000 dpm, FIG. 10-11", "value": "saturable binding"},
      {"measurement": "3H-heparin bound by type IV collagen relative to NCl domain", "setting": "constant 3H-heparin (85,000 dpm), increasing protein", "value": "5-6 times"},
      {"measurement": "3H-heparin bound to type IV collagen relative to NCl domain", "setting": "increasing 3H-heparin, constant protein (3 μg vs 1 μg)", "value": "approximately 4 times"},
      {"measurement": "binding of increasing concentrations of 3H-heparin to a constant amount of protein", "setting": "type IV collagen 3 μg, NCl domain 1 μg (equimolar), FIG. 12-13", "value": "saturable binding"}
    ]}
  ]
}
